GI50 and TGI data for 24 molecules are collected here from PubChem BioAssay (NCI).

Test systems include A498 renal; ACHN renal; RXF 393 renal; NCI-H226 lung; SW-620 colon; HCT-116 colon; DU-145 prostate; MCF7 breast; SF-295 CNS; HS 578T breast.
Common to all, as to test: NCI-60 cell line screen, 48 h

Several values for one entry are separate records, joined by “and”; a condition that tells them apart may be missing. Identical values can stand only once.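 Each compound was tested at five concentrations against cells in 96-well plates for 48 hours. GI50 = concentration required for 50% inhibition of growth. The concentration for full growth arrest is given as TGI.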

Consider `[Br][Pb]([c]1ccccc1)([c]1ccccc1)[c]1ccccc1`, for which the GI50 with A498 renal is 0.177 µM; in the assay on ACHN renal it was 0.175 µM; with RXF 393 renal, 0.0916 µM; in the assay on NCI-H226 lung, 0.173 µM; in the assay on SW-620 colon, 0.163 µM; in the assay with HCT-116 colon, 0.176 µM. Moreover, the results for the GI50 in the assay on DU-145 prostate and in the assay on MCF7 breast were 0.182 µM and 0.159 µM, respectively. Moreover, the TGI in the assay with A498 renal was 0.4 µM; in the assay with ACHN renal, 0.328 µM; in the assay on RXF 393 renal it was 0.231 µM; with NCI-H226 lung, 0.381 µM; in the assay with SW-620 colon, 0.3 µM; with HCT-116 colon it was 0.352 µM. Moreover, the TGI was found to be 0.37 µM in the assay on DU-145 prostate and 0.303 µM in the assay on MCF7 breast.
Turning to `Cc1c(Cl)ccc2c1NC(=O)C2(O)CC(=O)c1ccc(Cl)cc1` (configuration not stated), the TGI is more than 64.1 µM in the assay with A498 renal; more than 100 µM in the assay on ACHN renal; more than 88.5 µM in the assay with RXF 393 renal; more than 100 µM in the assay with NCI-H226 lung; more than 58.3 µM in the assay on SF-295 CNS; more than 53.1 µM in the assay on SW-620 colon. Further, the TGI in the assay with HCT-116 colon is more than 54 µM.
With `C[N+](C)(C)CC1CCC(C[N+](C)(C)C)C1=NO` (configuration not stated), the TGI in the assay with A498 renal, in the assay with ACHN renal, with RXF 393 renal, in the assay on NCI-H226 lung, with SF-295 CNS and with SW-620 colon was more than 100 µM in each case. The TGI in the assay with HCT-116 colon is more than 100 µM.
`CCCC1C[C@H]2CCCCN2[C@H]2CCCN12` (some centres not stated): the TGI is more than 100 µM with A498 renal; more than 100 µM in the assay on ACHN renal; more than 90.1 µM in the assay with RXF 393 renal; more than 100 µM in the assay on NCI-H226 lung; more than 100 µM in the assay with SF-295 CNS; more than 58.4 µM with SW-620 colon. In the assay on HCT-116 colon, this molecule yielded a TGI of more than 66.2 µM.
In the case of `OC12CCC3(OC4CCCCO4)c4ccccc4C3C1c1ccccc12` (configuration not stated), the TGI in the assay with ACHN renal, in the assay with RXF 393 renal, with NCI-H226 lung, in the assay with SF-295 CNS, with SW-620 colon and with HCT-116 colon was more than 100 µM each time.
Consider `O=C1C(Cl)=C(Nc2ccc(S(=O)(=O)c3ccc(NC4=C(Cl)C(=O)c5ccccc5C4=O)cc3)cc2)C(=O)c2ccccc21`, for which the GI50 in the assay on A498 renal was 3.72 µM; with ACHN renal, 1.31 µM; with RXF 393 renal it was 1.6 µM; with NCI-H226 lung it was 3.1 µM; in the assay on SF-295 CNS it was 3.27 µM; in the assay with HS 578T breast, 1.82 µM. Also, the GI50 with HCT-116 colon is 1.2 µM; in the assay on DU-145 prostate, 1.91 µM. The TGI with A498 renal turned out to be 16.2 µM; in the assay on ACHN renal, 2.69 µM; in the assay with RXF 393 renal, 2.96 µM; in the assay on NCI-H226 lung it was 18.6 µM; in the assay on SF-295 CNS, 11.8 µM; in the assay on HS 578T breast, 5.85 µM. Besides, the TGI with HCT-116 colon is 2.49 µM; with DU-145 prostate, 3.69 µM.
For the molecule `CC1NOC(=O)C1N=Nc1cccc(Cl)c1` (configuration not stated), the TGI in the assay on A498 renal was 52.5 µM; with ACHN renal it was more than 100 µM; in the assay with RXF 393 renal it was 64.1 µM; in the assay with NCI-H226 lung it was more than 100 µM; in the assay on SF-295 CNS, more than 100 µM; in the assay with SW-620 colon, 23.4 µM. The same molecule came in with a TGI in the assay on HCT-116 colon of more than 100 µM.
Consider `O=C(/C=C/c1ccccc1)c1ccc(Cl)cc1Cl`, for which the TGI in the assay with A498 renal amounted to 50.6 µM; with ACHN renal, 34.1 µM; with NCI-H226 lung, 89.9 µM; in the assay on SF-295 CNS, 41.2 µM; in the assay with SW-620 colon, 17.9 µM; with HCT-116 colon, 24 µM.
As to `N#C/C(=C\c1ccc(O)cc1)C(N)=O`, the TGI with A498 renal, in the assay on ACHN renal, in the assay on RXF 393 renal, with NCI-H226 lung, in the assay with SF-295 CNS and in the assay with SW-620 colon was more than 100 µM throughout. The TGI in the assay on HCT-116 colon and in the assay on MCF7 breast was more than 100 µM in each case.
On to `COC(=O)c1c(C(=O)OC)c(-c2ccccc2)n(-c2ccccc2)c(=O)c1-c1ccccc1`, for which the TGI was more than 100 µM in the assay on A498 renal; 60.8 µM with RXF 393 renal; more than 100 µM in the assay with NCI-H226 lung; more than 100 µM in the assay on SF-295 CNS; more than 100 µM in the assay on SW-620 colon; more than 100 µM in the assay with HCT-116 colon.
As for `COC(=O)C(=O)C(C(=O)C(=O)Nc1ccc([N+](=O)[O-])cc1)c1nc2ccccc2[nH]c1=O` (configuration not stated), the TGI in the assay on A498 renal, in the assay on ACHN renal, in the assay on RXF 393 renal, in the assay with NCI-H226 lung, in the assay on SW-620 colon and in the assay on HCT-116 colon was more than 100 µM each time.
On to `O=C(N/C(=C\c1ccc([N+](=O)[O-])cc1)c1nc2ccccc2s1)c1ccccc1`, for which the TGI is more than 100 µM in the assay on A498 renal; 92.1 µM in the assay on ACHN renal; 78.4 µM with RXF 393 renal; 69 µM in the assay with SW-620 colon; more than 100 µM with HCT-116 colon.
Consider `N=C(N)c1ccc2oc3ccc(C(=N)N)cc3c(=O)c2c1`, for which the TGI in the assay with A498 renal, in the assay on ACHN renal, in the assay with RXF 393 renal, with NCI-H226 lung, in the assay with SF-295 CNS and with SW-620 colon was more than 100 µM throughout. For the same molecule, the TGI with HCT-116 colon, in the assay on DU-145 prostate and in the assay with MCF7 breast was more than 100 µM each time.
`COC(=O)CC1(O)C(=O)OCc2c1cc1n(c2=O)Cc2c-1nc1ccccc1c2OC` (configuration not stated): the TGI in the assay on A498 renal is 11.5 µM; with ACHN renal it was 1.02 µM; in the assay with RXF 393 renal, 8.42 µM; in the assay on NCI-H226 lung, 0.688 µM; in the assay on SF-295 CNS it was 17.5 µM; in the assay on SW-620 colon, more than 100 µM. The TGI with HCT-116 colon is more than 100 µM.
Regarding `Cc1cc(N(CCC#N)CCC#N)ccc1/C=C(\NC(=O)/C=C/c1ccccc1)C(=O)Nc1ccccc1Cl`, the TGI in the assay on A498 renal, with ACHN renal, in the assay on RXF 393 renal, in the assay on NCI-H226 lung, with SF-295 CNS and in the assay on SW-620 colon was more than 100 µM throughout. For the same molecule, the TGI in the assay on HCT-116 colon was more than 100 µM.
As for `CCOc1ccc(NC(=O)CC2SC(=Nc3ccc(C)cc3)NC2=O)cc1` (configuration not stated), the TGI in the assay with A498 renal, with ACHN renal, with RXF 393 renal, in the assay with SF-295 CNS, with SW-620 colon and in the assay on HCT-116 colon was more than 100 µM each time.
With `CCCCCCCCCCCC/C=C\CC[C@@H](O)[C@H](O)CC[C@H](O)[C@@H]1CC[C@@H](CCCCCCCC2=C[C@H](C)OC2=O)O1`, the GI50 in the assay with A498 renal is 16.4 µM; with ACHN renal it was 4.35 µM; in the assay on NCI-H226 lung, 13.3 µM; with SF-295 CNS, 0.291 µM; with SW-620 colon, 23.4 µM; in the assay on HCT-116 colon it was 0.231 µM. The GI50 with MCF7 breast is 4.76 µM. Further, the TGI was 36.6 µM in the assay with A498 renal; 4.71 µM and 26.3 µM with ACHN renal; 37.8 µM in the assay with RXF 393 renal; 34.3 µM with NCI-H226 lung; 15.5 µM with SF-295 CNS; more than 100 µM with SW-620 colon. For the same molecule, the values for the TGI in the assay with HCT-116 colon and in the assay with MCF7 breast were 27.1 µM and 34.6 µM, respectively.
Consider `C=CCNC(=S)NNC(=O)c1c(C)nc2sccn12`, for which the TGI in the assay with ACHN renal, in the assay on RXF 393 renal, in the assay on NCI-H226 lung, in the assay with SF-295 CNS, with SW-620 colon and with HCT-116 colon was more than 100 µM in each case.
Turning to `COc1ccc(/C=C/C(=O)c2c(-c3ccccc3)nn(C)c(=O)c2N2CC2C)cc1` (configuration not stated), the TGI in the assay on A498 renal was 80.7 µM; with ACHN renal it was more than 100 µM; in the assay on RXF 393 renal, 93.6 µM; with NCI-H226 lung it was more than 100 µM; in the assay on SF-295 CNS, more than 100 µM; in the assay with SW-620 colon, 88.2 µM. The molecule further came in with a TGI in the assay on HCT-116 colon of more than 100 µM.
For the molecule `Cc1ccc(C)c2c1C1CCCCC3(OCCCO3)C21O` (configuration not stated), the TGI in the assay with A498 renal, in the assay with ACHN renal, in the assay with RXF 393 renal, with NCI-H226 lung, with SF-295 CNS and in the assay with SW-620 colon was more than 100 µM throughout. The molecule further displayed a TGI in the assay on HCT-116 colon of more than 100 µM.
Regarding `Cc1cc(NCCCCCCCNc2cc(C)nc3cc(N)ccc23)c2ccc(N)cc2n1`, the TGI in the assay on A498 renal is more than 100 µM; with ACHN renal, more than 100 µM; in the assay on RXF 393 renal, more than 100 µM; in the assay on NCI-H226 lung, 78.4 µM; in the assay on SF-295 CNS, more than 100 µM; in the assay with HCT-116 colon, more than 100 µM.
`O=P(CN1CCOCC1)(c1ccccc1)c1ccccc1`: the TGI in the assay with A498 renal, with ACHN renal, in the assay on RXF 393 renal, in the assay on SF-295 CNS, in the assay with SW-620 colon and with HCT-116 colon was more than 100 µM in each case.
Take `CCOc1ccc(C2=NN(CC)C(=O)C(C3C(=O)N(c4ccccc4)N=C3C)C2)cc1` (configuration not stated): the TGI with A498 renal, with ACHN renal, in the assay on RXF 393 renal, in the assay on NCI-H226 lung, with SF-295 CNS and with SW-620 colon was more than 100 µM throughout. This molecule yielded a TGI in the assay on HCT-116 colon of more than 100 µM.
As to `COc1cc2c(oc(=O)c3c4occc4cc(OC)c23)c2cccc(O)c12`, the TGI with A498 renal, in the assay on ACHN renal, in the assay on RXF 393 renal, in the assay on NCI-H226 lung, in the assay on SF-295 CNS and in the assay with SW-620 colon was more than 100 µM each time. Further, the TGI in the assay on HCT-116 colon was more than 100 µM.
